Experimental data reported in ChEMBL document CHEMBL1154488, “Synthesis, structure elucidation and antibacterial evaluation of new steroidal -5-en-7-thiazoloquinoxaline derivatives” (2008).
In brackets after ≈: the same amount, converted by molar mass.

Legend:
Format in all cases: functional
Escherichia coli [1] = experiment: Antibacterial activity against Escherichia coli after 18 hrs by macrodilution test
Escherichia coli [2] = experiment: Antibacterial activity against Escherichia coli after 18 hrs by disk diffusion method
Escherichia coli [3] = experiment: Antibacterial activity against Escherichia coli at 30 ug/disk after 18 hrs by disk diffusion method; details: read-out: IZ

Row | Structure (SMILES) | MIC (Escherichia coli [1]) | inhibition zone (IZ) (Escherichia coli [2]) | zone of inhibition at 30 µg/disc (Escherichia coli [3])
1 | CC(=O)O[C@H]1CC[C@@]2(C)C(=C/C(=N\NC(N)=S)[C@H]3[C@@H]4CC[C@H]([C@H](C)CCCC(C)C)[C@@]4(C)CC[C@@H]32)C1 | 128 µg/mL (≈ 248 µM) | 13.2 mm | 
2 | CC(C)CCC[C@@H](C)[C@H]1CC[C@H]2[C@@H]3CC=C4C[C@@H](O)CC[C@]4(C)[C@H]3CC[C@]12C [CHOLESTEROL] | 512 µg/mL (≈ 1320 µM) | 5.8 mm | 
3 | O=C(N[C@H](CO)[C@H](O)c1ccc([N+](=O)[O-])cc1)C(Cl)Cl [CHLORAMPHENICOL] | 32 µg/mL (≈ 99 µM) |  | 20 mm
4 | Clc1nc2ccccc2nc1Cl | 512 µg/mL (≈ 2570 µM) | 6.2 mm | 
5 | CC(C)CCC[C@@H](C)[C@H]1CC[C@H]2[C@@H]3/C(=N/NC(N)=S)C=C4CCCC[C@]4(C)[C@H]3CC[C@]12C | 256 µg/mL (≈ 559 µM) | 9.8 mm | 

Continued by falling MIC (Escherichia coli [1]), values first:

Row | MIC (Escherichia coli [1]) | Structure (SMILES) | inhibition zone (IZ) (Escherichia coli [2]) | zone of inhibition at 30 µg/disc (Escherichia coli [3])
6 | 128 µg/mL (≈ 219 µM) | CC(C)CCC[C@@H](C)[C@H]1CC[C@H]2[C@@H]3/C(=N/Nc4nc5nc6ccccc6nc5s4)C=C4CCCC[C@]4(C)[C@H]3CC[C@]12C | 14 mm | 
7 | 64 µg/mL (≈ 99.7 µM) | CC(=O)O[C@H]1CC[C@@]2(C)C(=C/C(=N\Nc3nc4nc5ccccc5nc4s3)[C@H]3[C@@H]4CC[C@H]([C@H](C)CCCC(C)C)[C@@]4(C)CC[C@@H]32)C1 | 20.8 mm | 
8 | 64 µg/mL (≈ 130 µM) | CC(C)CCC[C@@H](C)[C@H]1CC[C@H]2[C@@H]3/C(=N/NC(N)=S)C=C4C[C@@H](Cl)CC[C@]4(C)[C@H]3CC[C@]12C | 14.8 mm | 
9 | 32 µg/mL (≈ 51.8 µM) | CC(C)CCC[C@@H](C)[C@H]1CC[C@H]2[C@@H]3/C(=N/Nc4nc5nc6ccccc6nc5s4)C=C4C[C@@H](Cl)CC[C@]4(C)[C@H]3CC[C@]12C | 22.4 mm | 
